This is an account of results in patent publication US11912707B2 (priority 2016, dated 2024).

Data set [1] addresses T1, human mu-opioid receptor (MOR) (Homo sapiens, UniProt P35372).
T1 construct: expressed in transfected cells; host or cells: HEK-293T
Nature of the data set: BRET assay measuring G protein activation, agonist mode, human MOR. Format: cell-based. As to the method: (§1) Human MOR, KOR, or DOR cDNA was transfected alongside GαoB with RLuc8 inserted at position 91 (GαoB-RLuc8), Gβ1 (β1), and Gγ2 fused to the full-length mVenus at its N terminus (mVenus-γ2) (2.5 μg MOR/DOR/KOR, 0.125 μg GαoB-RLuc8, 6.25 μg β1; 6.25 μg mVenus-γ2) into HEK-293T cells (5×10^6 cells/plate) in 10-cm dishes using PEI (Polysciences Inc.; Warrington, PA) in a 1:1 ratio diluted in Opti-MEM (Life Technologies Corp.; Grand Island, NY) to assay for G protein activation as described previously.^2,3 Cells were maintained in Dulbecco's Modified Eagle Medium (high glucose #11965; Life Technologies) supplemented with 10% FBS (Premium Select, Atlanta Biologicals; Atlanta, GA) and 100 U/mL penicillin and 100 μg/mL streptomycin (#15140, Life Technologies). After 24 hours the media was changed, and the experiment was performed 24 hours later (48 hours after transfection).
(§2) Transfected cells were dissociated and resuspended in phosphate-buffered saline (PBS). Approximately 200,000 cells/well were added to a black-framed, white well 96-well plate (#60050; Perkin Elmer; Waltham, MA). The microplate was centrifuged and the cells were resuspended in phosphate-buffered saline (PBS). For agonist experiments, after 5 minutes, 5 μM of the luciferase substrate coelenterazine H was added to each well. After 5 minutes, ligands were added and the BRET signal was measured at 5 minutes on a PHERAstar FS plate reader. For antagonist competition experiments, cells were preincubated with the antagonist at varying concentrations for 30 minutes. Coelenterazine H (5 μM) was then added to each well for 5 minutes. […] The BRET signal was quantified by calculating the ratio of the light emitted by the energy acceptor, mVenus (510-540 nm), over the light emitted by the energy donor, RLuc8 (485 nm). This drug-induced BRET signal was normalized using the Emax of [D-Ala2, N-Me-Phe4, Gly5-ol]-enkephalin (DAMGO), U-50,488, or [D-Pen(2,5)]enkephalin (DPDPE) as the maximal response at MOR, KOR, and DOR respectively. Dose response curves were fit using a three-parameter logistic equation in GraphPad Prism 6.
On the technique in general: BRET reads energy transfer from a luciferase to a nearby fluorophore.

Data set [2] concerns the target T2, human kappa-opioid receptor (KOR) (Homo sapiens, UniProt P41145).
T2 construct: expressed in transfected cells; host or cells: HEK-293T
Nature of the data set: BRET assay measuring G protein activation, antagonist competition vs U-50,488, human KOR. Format: cell-based. As to conditions: for Inhibition of the agonist activity of U-50,488 at human KOR: concentration of agonist = 320 nM, FIG. 1. Here is the method:
as §1, §2

For data set [3], the target named is T3, human delta-opioid receptor (DOR) (Homo sapiens, UniProt P41143).
T3 construct: expressed in transfected cells; host or cells: HEK-293T
The experiment in a line: BRET assay measuring G protein activation, antagonist competition vs DPDPE, human DOR. Format: cell-based. As to conditions: for Extent of antagonism at Human DOR: competing agonist DPDPE (50 nM). Here is the method: as §1, §2

Data set [4] can be described thus: Stability in human liver microsomes. Particulars: pH 7.4, 2 μM test compound, 0.42 mg/mL microsomal protein, 37° C., NADPH, read-out: t1/2 in human liver microsomes. Format: in vitro ADME. As to the method: Microsomal incubations were carried out in 96-well plates in 5 aliquots of 40 μL each (one for each time point). Liver microsomal incubation medium contained PBS (100 mM, pH 7.4), MgCl2 (3.3 mM), NADPH (3 mM), glucose-6 phosphate (5.3 mM), and glucose-6-phosphate dehydrogenase (0.67 units/ml) with 0.42 mg of liver microsomal protein per mL. Control incubations were performed replacing the NADPH-cofactor system with PBS. Test compound (2 μM, final solvent concentration 1.6%) was incubated with microsomes at 37° C., shaking at 100 rpm. Incubations were performed in duplicates. Five time points over 40 minutes were analyzed. The reactions were stopped by adding 12 volumes of 90% acetonitrile-water to incubation aliquots, followed by protein sedimentation by centrifuging at 5500 rpm for 3 minutes. Supernatants were analyzed for remaining test compound using an HPLC system coupled with a tandem mass spectrometer.
For orientation: Microsomes from liver hold many membrane-bound enzymes, among them those of drug oxidation.

The target in data set [5] is T1, human mu-opioid receptor (MOR). As to conditions: Kruegel, A. C. et al. 2016; cited from earlier work.
The target in data set [6] is T2, human kappa-opioid receptor (KOR). As to conditions: Kruegel, A. C. et al. 2016; cited from earlier work.
The target in data set [7] is MOR (Homo sapiens, UniProt P35372). As to conditions: Kruegel, A. C. et al. 2016; cited from earlier work.
The subject of data set [8] is MOR. As to conditions: Takayama 2002; Matsumoto 2004; cited from earlier work.
[9] abbreviates: inhibition of reference agonist U-50,488 at 5x its EC50 (320 nM), read-out: Antagonist IC50, Human KOR.
The mark [10] stands for this setting: read-out: Antagonist IC50, Human DOR.

Where two headings read alike, the source gives them in different places.

Broadly, the Emax is the greatest response seen or fitted, relative to the assay's reference. Broadly, the IC50 is the concentration that gives 50% inhibition. A word on the Ki: it is a dissociation constant, usually derived from enzyme kinetics or from competition with a known ligand. `CC[C@@H]1CN2CC[C@@]3(O)C(=Nc4cccc(OC)c43)[C@@H]2C[C@@H]1/C(=C\OC)C(=O)OC` [7-hydroxymitragynine, 7-Hydroxymitragynine] showed an Emax in data set [1] (normalized to Emax of DAMGO) of 60%. In addition, in data set [2], the IC50 came to 7.9 µM, affinity was put at a Ki of 0.49 µM and the “Inhibition of the agonist activity of U-50,488 at human KOR” value (“Inhibition” for short) is “fully inhibit”. The molecule further displayed an IC50 in data set [3] of 15.6 µM. For the same molecule, in data set [4], the half-life at 2 μM is 4.38 h. Moreover, the “Type of activity at MOR” value in data set [5] is “partial MOR agonists”. Moreover, the “Type of activity at KOR” value in data set [6] is reported as “competitive kappa-opioid receptor (KOR) antagonists”. The “beta-arrestin recruitment at MOR” value in data set [7] is listed as “failing to recruit beta-arrestin”. In data set [8], the “binding affinities for the MOR” value is “nanomolar”.
Regarding `CC[C@@H]1CN2CC[C@@]3(O)C(=Nc4cccc(OC)c43)[C@@H]2C[C@@H]1/C(=C/OC)C(=O)OC` [(Z)-7-hydroxymitragynine, methyl (Z)-2-((2S,3S,7aS,12bS)-3-ethyl-7a-hydroxy-8-methoxy-1,2,3,4,6,7,7a,12b-octahydroindolo[2,3-a]quinolizin-2-yl)-3-methoxyacrylate], the Emax in data set [1] (normalized to Emax of DAMGO) came to 64%. The half-inhibitory concentration (IC50) in data set [2] and in data set [3] was more than 50 µM each time.
`CC[C@@H]1CN2CCc3c([nH]c4cccc(OC)c34)[C@@H]2C[C@@H]1/C(=C/OC)C(=O)OC` [(Z)-mitragynine, methyl (Z)-2-((2S,3S,12bS)-3-ethyl-8-methoxy-1,2,3,4,6,7,12,12b-octahydroindolo[2,3-a]quinolizin-2-yl)-3-methoxyacrylate]: the IC50 in data set [2] (setting [9]) is 42 µM; in data set [3] (setting [10]), more than 100 µM. The “Extent of antagonism at Human DOR” value in data set [3] is listed as “partial”.
Turning to `[2H]C([2H])([2H])O/C=C(/C(=O)OC([2H])([2H])[2H])[C@H]1C[C@H]2c3[nH]c4cccc(OC([2H])([2H])[2H])c4c3CCN2C[C@H]1CC` [Compound 18, Methyl-d3 (E)-2-((2S,3S,12bS)-3-ethyl-8-(methoxy-d3)-1,2,3,4,6,7,12,12b-octahydroindolo[2,3-a]quinolizin-2-yl)-3-(methoxy-d3)acrylate], the half-life at 2 μM in data set [4] was 0.585 h.
Same read-out and setting: the result for `[2H]CO/C=C(/C(=O)OC([2H])([2H])[2H])[C@H]1C[C@H]2C3=Nc4cccc(OC([2H])([2H])[2H])c4[C@@]3(O)CCN2C[C@H]1CC` [Compound 19, Methyl-d3 (E)-2-((2S,3S,7aS,12bS)-3-ethyl-7a-hydroxy-8-(methoxy-d3)-1,2,3,4,6,7,7a,12b-octahydroindolo[2,3-a]quinolizin-2-yl)-3-(methoxy-d)acrylate] reads 6.57 h.
Usually EC50 stands for the concentration needed to bring the measured effect to its halfway point. Read a high EC50 as a need for much substance. In data set [1], `CC[C@@H]1CN2CC[C@]3(Nc4cccc(OC)c4C3=O)[C@@H]2C[C@@H]1/C(=C\OC)C(=O)OC` [mitragynine pseudoindoxyl, methyl (E)-2-((2S,6′S,7′S,8a′S)-6′-ethyl-4-methoxy-3-oxo-2′,3′,6′,7′,8′,8a′-hexahydro-5′H-spiro[indoline-2,1′-indolizin]-7′-yl)-3-methoxyacrylate] gave an EC50 of 0.0145 µM. In data set [1] (normalized to Emax of DAMGO), the Emax amounted to 52%. In addition, in data set [2], the IC50 turned out to be 4.8 µM and the “Inhibition” value is given as “fully inhibit”. The molecule further had an IC50 in data set [3] of 0.609 µM. Also, the “Type of activity at MOR” value in data set [5] is “partial MOR agonists”. Also, in data set [6], the “Type of activity at KOR” value was “competitive kappa-opioid receptor (KOR) antagonists”. Besides, the “beta-arrestin recruitment at MOR” value in data set [7] was “failing to recruit beta-arrestin”.
With `CC[C@@H]1CN2CCc3c([nH]c4cccc(OC)c34)[C@@H]2C[C@@H]1/C(=C\OC)C(=O)OC` [mitragynine, Mitragynine], the “Emax, Human MOR” value in data set [1] (normalized to Emax of DAMGO) worked out at 34%. Moreover, the Ki in data set [2] (Schild analysis, read-out: Schild pA2 (an estimate of Ki), Human KOR (converted)) is 1.4 µM. Further, the “Inhibition” value in data set [2] is recorded as “fully inhibit”. Further, the results for the IC50 in data set [2] (setting [9]) and in data set [3] (setting [10]) were 8.5 µM and more than 50 µM, respectively. Further, the “Extent of antagonism at Human DOR” value in data set [3] is listed as “partial”. Besides, the half-life at 2 μM in data set [4] was determined as 0.447 h. Also, the “Type of activity at MOR” value in data set [5] was “partial MOR agonists”. Also, the “Type of activity at KOR” value in data set [6] is on record as “competitive kappa-opioid receptor (KOR) antagonists”. Further, the “beta-arrestin recruitment at MOR” value in data set [7] is “failing to recruit beta-arrestin”. Further, the “binding affinities for the MOR” value in data set [8] is “nanomolar”.
